In patent publication US20160222056A1, “SUBSTITUTED PHENYLALANINE DERIVATIVES” (BAYER PHARMA AKTIENGESELLSCHAFT, priority 2013, published 2016):
Counter-ions that a name gives are not always drawn.

Tests used:
Format in all cases: biochemical
[1] = biological target: T1, human factor XIa (Homo sapiens, UniProt P03951); test: Measurement of FXIa inhibition (fluorogenic peptide substrate); conditions: human factor XIa from Kordia, substrate Boc-Glu(OBzl)-Ala-Arg-AMC, 30 min at 22° C.; read-out: IC50 (FXIa inhibition)
T1 construct: purchased Kordia
T1 sequence (P03951 388-625 limits assumed): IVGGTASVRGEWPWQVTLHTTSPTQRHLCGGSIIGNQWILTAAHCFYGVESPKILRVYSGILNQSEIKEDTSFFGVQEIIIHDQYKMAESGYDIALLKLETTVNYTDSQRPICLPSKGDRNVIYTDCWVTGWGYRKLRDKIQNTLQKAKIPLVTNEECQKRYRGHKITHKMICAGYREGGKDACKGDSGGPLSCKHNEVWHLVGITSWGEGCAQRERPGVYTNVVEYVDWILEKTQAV
T1 sequence (P03951 19-387 partner limits assumed): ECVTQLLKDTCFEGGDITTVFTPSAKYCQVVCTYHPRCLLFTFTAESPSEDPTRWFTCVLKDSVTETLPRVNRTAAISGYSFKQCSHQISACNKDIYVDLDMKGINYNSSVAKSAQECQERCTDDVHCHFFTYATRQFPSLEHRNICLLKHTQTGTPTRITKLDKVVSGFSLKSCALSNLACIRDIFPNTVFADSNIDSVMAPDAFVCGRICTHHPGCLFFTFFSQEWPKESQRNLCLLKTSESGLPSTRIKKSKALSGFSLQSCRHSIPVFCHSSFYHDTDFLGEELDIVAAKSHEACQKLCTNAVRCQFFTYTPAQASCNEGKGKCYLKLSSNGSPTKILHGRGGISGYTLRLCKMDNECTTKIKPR
Procedure: To determine the factor XIa inhibition of the substances according to the invention, a biochemical test system is used which utilizes the reaction of a peptidic factor XIa substrate to determine the enzymatic activity of human factor XIa. Here, factor XIa cleaves from the peptic factor XIa substrate the C-terminal aminomethylcoumarin (AMC), the fluorescence of which is measured. The determinations are carried out in microtitre plates.
(§1) Test substances are dissolved in dimethyl sulphoxide and serially diluted in dimethyl sulphoxide (3000 μM to 0.0078 μM; resulting final concentrations in the test: 50 μM to 0.00013 μM). In each case 1 μl of the diluted substance solutions are placed into the wells of white microtitre plates from Greiner (384 wells). Subsequently, the following are added successively: 20 μl of assay buffer (50 mmol/1 Tris buffer pH 7.4; 100 mmol/1 sodium chloride; 5 mmol/1 calcium chloride; 0.1% bovine serum albumin) and 20 μl of factor XIa from Kordia (0.45 nM in assay buffer). After 15 min of incubation, the enzyme reaction is started by addition of 20 μl of the factor XIa substrate Boc-Glu(OBzl)-Ala-Arg-AMC dissolved in assay buffer (10 μM in assay buffer) from Bachem, the mixture is incubated at room temperature (22° C.) for 30 min and fluorescence is then measured (excitation: 360 nm, emission: 460 nm). The measured emissions of the test batches with test substance are compared to those of control batches without test substance (only dimethyl sulphoxide instead of test substance in dimethyl sulphoxide), and the IC50 values are calculated from the concentration/activity relationships.

[2] = biological target: T2, human plasmin (Homo sapiens, UniProt P00747); test: Measurement of plasmin inhibition (fluorogenic peptide substrate); conditions: plasmin from Kordia, substrate MeOSuc-Ala-Phe-Lys-AMC, 30 min at 22° C.
T2 construct: purchased Kordia
T2 sequence (P00747 581-810 limits assumed): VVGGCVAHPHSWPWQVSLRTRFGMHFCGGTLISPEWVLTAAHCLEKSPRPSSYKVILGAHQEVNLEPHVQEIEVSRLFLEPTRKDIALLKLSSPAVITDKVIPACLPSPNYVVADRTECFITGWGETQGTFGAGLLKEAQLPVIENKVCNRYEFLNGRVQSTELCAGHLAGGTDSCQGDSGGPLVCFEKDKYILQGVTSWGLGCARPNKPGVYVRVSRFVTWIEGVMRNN
T2 sequence (P00747 97-580 partner limits assumed): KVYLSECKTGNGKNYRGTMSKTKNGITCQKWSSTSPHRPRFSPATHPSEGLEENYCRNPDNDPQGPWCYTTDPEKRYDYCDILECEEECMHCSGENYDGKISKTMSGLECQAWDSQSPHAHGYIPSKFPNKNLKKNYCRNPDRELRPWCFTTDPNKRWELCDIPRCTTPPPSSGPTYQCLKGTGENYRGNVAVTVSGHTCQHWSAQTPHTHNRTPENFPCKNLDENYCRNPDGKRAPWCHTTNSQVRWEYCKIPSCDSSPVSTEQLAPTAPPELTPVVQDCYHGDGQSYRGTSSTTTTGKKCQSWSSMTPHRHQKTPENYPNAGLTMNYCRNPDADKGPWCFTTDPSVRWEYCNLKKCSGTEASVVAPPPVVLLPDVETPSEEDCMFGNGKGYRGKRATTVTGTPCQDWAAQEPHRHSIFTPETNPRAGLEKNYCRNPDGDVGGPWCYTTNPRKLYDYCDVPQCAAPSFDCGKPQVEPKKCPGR
Procedure: The plasmin inhibition of the inventive substances is determined using a biochemical test system which utilizes the reaction of a peptidic plasmin substrate to determine the enzymatic activity of human plasmin. Here, plasmin cleaves from the peptic plasmin substrate the C-terminal aminomethylcoumarin (AMC), the fluorescence of which is measured. The determinations are carried out in microtitre plates.
as §1, with “plasmin” for “factor XIa”, “(0.3 μg/ml” for “(0.45 nM”, “MeOSuc-Ala-Phe-Lys-AMC” for “Boc-Glu(OBzl)-Ala-Arg-AMC”, “(150” for “(10”

[3] = tested on: human and animal plasma; test: Anticoagulatory activity: activated partial thromboplastin time (aPTT) in plasma; conditions: in vitro in plasma, C.K. Prest kit, 37° C. for 3 minutes; plasma species of Table B not stated
Procedure: The anticoagulatory activity of the test substances is determined in vitro in human and animal plasma (for example mouse, rat, rabbit, pig and dog plasma). To this end, blood is drawn off in a mixing ratio of sodium citrate/blood of 1:9 using a 0.11 molar sodium citrate solution as receiver. Immediately after the blood has been drawn off, it is mixed thoroughly and centrifuged at about 4000 g for 15 minutes. The supernatant is pipetted off.
The activated partial thromboplastin time (aPTT) is determined in the presence of varying concentrations of test substance or the corresponding solvent using a commercial test kit (C.K. Prest from Diagnostica Stago). The test compounds are incubated with the plasma and the PTT reagent (cephalin, kaolin) at 37° C. for 3 minutes. Coagulation is then started by addition of 25 mM aqueous calcium chloride, and the time when coagulation occurs is determined. The concentration of test substance which brings about a 1.5-fold extension of the aPTT is determined.

Row | SMILES | IC50 [1] | IC50 [2] | aPTT (concentration of test substance which brings about a 1.5-fold extension of the aPTT) [3]
1 | Cc1nc(C(=O)NC2CCC2)ccc1-c1ccc(C[C@H](NC(=O)[C@H]2CC[C@H](CN)CC2)C(=O)Nc2ccc3cn[nH]c3c2)cc1 [Example 34, N-alpha-{[trans-4-(Aminomethyl)cyclohexyl]carbonyl}-4-[6-(cyclobutylcarbamoyl)-2-methylpyridin-3-yl]-N-1H-indazol-6-yl-L-phenylalaninamide hydrochloride] | 8.2 nM | 0.9 nM | 0.41 µmol/L
2 | Cc1nc(C(=O)NC(C)C)ccc1-c1ccc(C[C@H](NC(=O)[C@H]2CC[C@H](CN)CC2)C(=O)Nc2ccc3c(=O)[nH][nH]c3c2)cc1 [Example 39, N-alpha-{[trans-4-(Aminomethyl)cyclohexyl]carbonyl}-4-[6-(isopropylcarbamoyl)-2-methylpyridin-3-yl]-N-(3-oxo-2,3-dihydro-1H-indazol-6-yl)-L-phenylalaninamide hydrochloride] | 4.3 nM | 1.2 nM | 0.27 µmol/L
3 | Cc1nc(C(=O)N[C@H](C)CO)ccc1-c1ccc(C[C@H](NC(=O)[C@H]2CC[C@H](CN)CC2)C(=O)Nc2ccc(-c3nn[nH]n3)cc2)cc1 [Example 29, N-alpha-{[trans-4-(Aminomethyl)cyclohexyl]carbonyl}-4-(6-{[(2R)-1-hydroxypropan-2-yl]carbamoyl}-2-methylpyridin-3-yl)-N-[4-(2H-tetrazol-5-yl)phenyl]-L-phenylalaninamide hydrochloride] | 2.4 nM | 10 nM | 
4 | Cc1nc(C(=O)NC(C)C)ccc1-c1ccc(C[C@H](NC(=O)[C@H]2CC[C@H](CN)CC2)C(=O)Nc2cc(Cl)c3oc(=O)[nH]c3c2)cc1 [Example 38, N-alpha-{[trans-4-(Aminomethyl)cyclohexyl]carbonyl}-N-(7-chloro-2-oxo-2,3-dihydro-1,3-benzoxazol-5-yl)-4-[6-(isopropylcarbamoyl)-2-methylpyridin-3-yl]-L-phenylalaninamide hydrochloride] | 14 nM | 0.8 nM | 0.99 µmol/L
5 | Cc1nc(C(=O)NC2CCC2)ccc1-c1ccc(C[C@H](NC(=O)[C@H]2CC[C@H](CN)CC2)C(=O)Nc2ccc3[nH]c(=O)[nH]c3c2)cc1 [Example 37, N-alpha-{[trans-4-(Aminomethyl)cyclohexyl]carbonyl}-4-[6-(cyclobutylcarbamoyl)-2-methylpyridin-3-yl]-N-(2-oxo-2,3-dihydro-1H-benzimidazol-5-yl)-L-phenylalaninamide hydrochloride] | 13 nM | 1.5 nM | 0.2 µmol/L
6 | Cc1nc(C(=O)NC(C)C(F)(F)F)ccc1-c1ccc(C[C@H](NC(=O)[C@H]2CC[C@H](CN)CC2)C(=O)Nc2ccc3cn[nH]c3c2)cc1 (stereo partly drawn) [Example 35, N-alpha-{[trans-4-(Aminomethyl)cyclohexyl]carbonyl}-N-1H-indazol-6-yl-4-{2-methyl-6-[(1,1,1-trifluoropropan-2-yl)carbamoyl]pyridin-3-yl}-L-phenylalaninamide hydrochloride] | 8.7 nM | 1.1 nM | 0.49 µmol/L
7 | Cc1nc(C(=O)NC(C)C)ccc1-c1ccc(C[C@H](NC(=O)[C@H]2CC[C@H](CN)CC2)C(=O)Nc2ccc3[nH]c(=O)[nH]c3c2)cc1 [Example 40, N-alpha-{[trans-4-(Aminomethyl)cyclohexyl]carbonyl}-4-[6-(isopropylcarbamoyl)-2-methylpyridin-3-yl]-N-(2-oxo-2,3-dihydro-1H-benzimidazol-5-yl)-L-phenylalaninamide hydrochloride] | 15.5 nM | 1.8 nM | 
8 | Cc1cc(C(=O)Nc2ccn(C)n2)ncc1-c1ccc(C[C@H](NC(=O)[C@H]2CC[C@H](CN)CC2)C(=O)Nc2ccc(-c3nnn[nH]3)cc2)cc1 [Example 23, N-alpha-{[trans-4-(Aminomethyl)cyclohexyl]carbonyl}-4-{4-methyl-6-[(1-methyl-1H-pyrazol-3-yl)carbamoyl]pyridin-3-yl}-N-[4-(1H-tetrazol-5-yl)phenyl]-L-phenylalaninamide hydrochloride] | 2.5 nM | 4.5 nM | 0.17 µmol/L
9 | CCN(CC)CCCNC(=O)c1ccc(-c2ccc(C[C@H](NC(=O)[C@H]3CC[C@H](CN)CC3)C(=O)Nc3ccc(-c4nn[nH]n4)cc3)cc2)c(C)n1 [Example 24, N-alpha-{[trans-4-(Aminomethyl)cyclohexyl]carbonyl}-4-(6-{[3-(diethylamino)propyl]-carbamoyl}-2-methylpyridin-3-yl)-N-[4-(2H-tetrazol-5-yl)phenyl]-L-phenylalaninamide hydrochloride] | 6 nM |  | 0.17 µmol/L
10 | Cc1cc(C(=O)N2CCNC(C)C2)ncc1-c1ccc(C[C@H](NC(=O)[C@H]2CC[C@H](CN)CC2)C(=O)Nc2ccc(-c3nnn[nH]3)cc2)cc1 (stereo partly drawn) [Example 25, N-alpha-{[trans-4-(Aminomethyl)cyclohexyl]carbonyl}-4-{4-methyl-6-[(3-methylpiperazin-1-yl)carbonyl]pyridin-3-yl}-N-[4-(1H-tetrazol-5-yl)phenyl]-L-phenylalaninamide hydrochloride] | 4.2 nM |  | 0.18 µmol/L
11 | Cc1nc(C(=O)N[C@@H]2CCNC2)ccc1-c1ccc(C[C@H](NC(=O)[C@H]2CC[C@H](CN)CC2)C(=O)Nc2ccc(-c3nn[nH]n3)cc2)cc1 [Example 17, N-alpha-{[trans-4-(Aminomethyl)cyclohexyl]carbonyl}-4-{2-methyl-6-[(3R)-pyrrolidin-3-ylcarbamoyl]pyridin-3-yl}-N-[4-(2H-tetrazol-5-yl)phenyl]-L-phenylalaninamide hydrochloride] | 5 nM |  | 0.12 µmol/L
12 | Cc1nc(C(=O)NC(C)C(F)(F)F)ccc1-c1ccc(C[C@H](NC(=O)[C@H]2CC[C@H](CN)CC2)C(=O)Nc2ccc3[nH]c(=O)[nH]c3c2)cc1 (stereo partly drawn) [Example 36, N-alpha-{[trans-4-(Aminomethyl)cyclohexyl]carbonyl}-4-{2-methyl-6-[(1,1,1-trifluoropropan-2-yl)carbamoyl]pyridin-3-yl}-N-(2-oxo-2,3-dihydro-1H-benzimidazol-5-yl)-L-phenylalaninamide hydrochloride] | 11 nM | 1.2 nM | 0.21 µmol/L
